Our source for the IC50 values is US11524941B2, “Pyrazole compounds as LSD1 inhibitors and applications thereof” (MEDSHINE DISCOVERY INC., priority 2020, dated 2022).

In the experiment the test system is NCI-H1417 cells. Briefly: Proliferation inhibitory activity against NCI-H1417 cells (CellTiter-Glo). The experiment is classed as cell-based. As to conditions: Homo sapiens, 240 h, 10 days incubation, starting concentration 10 μM, read-out: IC50 (nM), NCI-H1417 cell proliferation inhibition. The method, then: Experimental purpose: To detect the inhibitory activity of the compounds against NCI-H1417 cells.
Experimental materials: RPMI 1640 medium, fetal bovine serum, Promega CellTiter-Glo reagent. The NCI-H1417 cell line was purchased from ATCC. Envision multilabel analyzer (PerkinElmer).
Experimental method: The compounds were dissolved to 10 mM, and the compounds were diluted 5 times with DMSO in the compound plate. The starting concentration of the compound was 2 mM, diluted 3 times with Bravo to 10 concentrations. Echo was used to transfer 250 nL to the top and bottom double wells of a blank 384 cell plate, and 250 nL of DMSO/compound was added to a cell suspension of 1000 cells/50 μL per well, and the compounds were diluted 200 times, i.e. the starting concentration was 10 μM. Cell plates were incubated in a carbon dioxide incubator for 10 days. 25 μL of Promega CellTiter-Glo reagent per well was added to the cell plate, and the mixture was shaken for 10 minutes at room temperature to stabilize the luminescence signal. Readings were taken using a PerkinElmer Envision multilabel analyzer.
Data analysis: The equation (Max-Ratio)/(Max-Min)*100% was used to convert the original data into inhibition rate, the IC50 value can be obtained by curve fitting with four parameters. (derived from 205 mode in XLFIT5, iDBS)
(Cellular ATP, detected with luciferase, serves as a proxy for viable cell number.)

Structures are written as SMILES. Structures can show the parent of a compound that is named as a salt.

Consider `CC(C)(O)Cn1nnc2cc(-c3cn(CC(=O)N4CCC[C@@H](N)C4)nc3-c3ccc(C#N)c(F)c3)ccc21` [Hydrochloride of compound 22], for which the IC50 was 107 nM.
